Read-outs that look alike come from different tables or passages of the source. Where a SMILES comes first, the peptide text is derived from it.
Experiments:
[1] = test system: UM-UC-5 urothelial bladder cancer cell lines; assay: tissue or blood; format: cell-based; conditions: 48 h
Experimental: (§1) A549 adenocarcinomic human alveolar basal epithelial cells, UM-UC-5 urothelial bladder cancer cell lines, and MRC-5 human normal lung fibroblast cells (all from ATCC, American Type Culture Collection, Manassas, VA, USA) were cultured in Dulbecco’s Modified Eagle Medium (DMEM) medium (Gibco®, Grand Island, NY, USA), supplemented with 10% fetal bovine serum (FBS, Gibco®, Grand Island, NY, USA) and 1% (v/v) penicillin/streptomycin (Sigma-Aldrich®, Steinheim, Germany), maintained at 37 °C and 95% humidified air in a 5% CO2 environment. Cells were cultured in monolayers in T25 cm^2 flasks (ThermoScientific®, Waltham, MA, USA) and cell media were replaced every 2–3 days. At 80% confluency, cells were subcultured. For the subculture process, 0.25% trypsin-ethylenediaminetetraacetic acid (EDTA, Sigma-Aldrich®, Steinheim, Germany), was added.
(§2) The potential of the antineoplastic drug 5-FU, five cationic antimicrobial peptides (CAMPs), and two cell-penetrating peptides (CPPs) was analyzed in UM-UC-5 and A549 cell lines. Cells were treated with drugs in concentrations ranging from 0.1 to 100 μM (for 5-FU) and 0.1 to 50 μM (for CAMPs and CPPs) for 48 h, and cell survival was evaluated using the MTT assay. […] IC50 values > 100 μM were not considered.
(§3) The cell viability was measured using the MTT (Thiazolyl blue tetrazolium bromide; cat. no. M5655; Sigma-Aldrich; Merck KGaA, Darmstadt, Germany) assay in 96-well plates. For the protocol, 5 × 10^3 cells in 200 µL of medium were grown per well for 24 h at 37 °C. Then, cells were treated with CAMPs and CPPs in the following concentrations: 0.1, 1.0, 5.0, 10, 25, and 50 µM. […] The controls were treated with 0.1% H2O and 0.1% DMSO (vehicles). After incubation for 48 h at 37 °C, cell media were aspirated and 100 µL of MTT solution (0.5 mg/mL in PBS) was added to each well. After incubation for 3 h at 37 °C protected from light, MTT solution was removed from each well and 100 µL of DMSO was added to each well to solubilize the formazan crystals. Absorbance was measured on a Tecan Infinite M200 plate reader (Tecan Group Ltd., Männedorf, Switzerland) at 570 nm. The cell viability was calculated relative to the absorbance of carrier controls. Average values were obtained by performing three independent cell viability assays (n = 3).

[2] = test system: A549 adenocarcinomic human alveolar basal epithelial cells; format: cell-based; conditions: 48 h
Experimental: as §1, §2, §3

[3] = UM-UC-5 cells, MTT, n = 3, read-out: IC50
[4] = A549 cells, MTT, n = 3, read-out: IC50

Molecule	IC50 [1, 3] [µM]	IC50 [2, 4] [µM]	IC50 [1] [µM]	IC50 [2] [µM]
O=c1[nH]cc(F)c(=O)[nH]1 [Peptide 5-FU, 5-fluorouracil, reference compound]	4.21			
H-WRKFWKYLK-NH2 [CAMP2]	21.6	5.77		
CC[C@H](C)[C@H](NC(=O)[C@@H](NC(=O)[C@@H](NC(=O)[C@H](CCCNC(=N)N)NC(=O)[C@H](CCCNC(=N)N)NC(=O)[C@H](CCC(N)=O)NC(=O)[C@H](CCCNC(=N)N)NC(=O)/C=C/c1ccccc1)C(C)C)C(C)C)C(=O)N[C@@H](Cc1c[nH]c2ccccc12)C(=O)N[C@@H](Cc1c[nH]c2ccccc12)C(N)=O [CPP2] (HELM PEPTIDE1{[O=C(/C=C/c1ccccc1)[*:2]].R.Q.R.R.V.V.I.W.W.[am]}$$$$V2.0)	5.47	> 100		
H-RIRRWKFRW-NH2 [CAMP5]	> 100	19.7		
H-RLWWWWRRR-NH2 [CAMP3]			> 100	17.6
H-RQRRVVIWW-NH2 [CAMP7]	> 100	> 100		
Ac-CLLIILRRRIRKQAHAHSK-NH2 [CPP4]			> 100	> 100
H-WKWLKKWIK-NH2 [CAMP1]	> 100	12.4		
